Measured values taken from patent US20260327250A1, “3-ETHYLAMINO-INDOLE DIMERS AS SEROTONERGIC AGENTS USEFUL FOR THE TREATMENT OF DISORDERS RELATED THERETO” (MINDSET PHARMA INC., priority 2022, published 2026).
Where a name gives a salt, the structure may show the parent alone. Read-outs that look alike come from different tables or passages of the source.

Experiments:
[1] = target: T1, human 5-HT1A receptor (Homo sapiens, UniProt P08908); experiment: Human 5-HT1A radioligand binding assay ([3H]-8-Hydroxy-DPAT)
T1 sequence (P08908 1-422): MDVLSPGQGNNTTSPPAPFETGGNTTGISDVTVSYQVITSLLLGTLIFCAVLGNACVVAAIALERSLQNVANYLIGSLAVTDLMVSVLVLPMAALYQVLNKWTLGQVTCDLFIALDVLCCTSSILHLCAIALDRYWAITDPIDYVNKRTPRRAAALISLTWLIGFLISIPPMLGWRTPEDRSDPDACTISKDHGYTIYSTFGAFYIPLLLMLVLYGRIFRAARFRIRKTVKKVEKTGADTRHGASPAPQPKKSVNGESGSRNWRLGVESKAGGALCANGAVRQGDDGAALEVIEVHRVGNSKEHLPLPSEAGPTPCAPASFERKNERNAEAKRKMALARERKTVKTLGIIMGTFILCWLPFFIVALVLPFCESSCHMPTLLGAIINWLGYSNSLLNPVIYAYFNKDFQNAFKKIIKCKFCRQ
Method: The objective of this study was to evaluate the binding properties of test compounds on 5-hydroxytryptamine receptor 1A.
(§1) • 1. The assay buffer was prepared following the table below.
pH was adjusted to 7.4 followed by […] sterile filtration • 1. 8 doses of reference and test compounds were prepared starting from 10 mM stock solution as required by 5-fold serial dilutions with 100% (v/v) DMSO. • 2. UniFilter-96 GF/B Plate was Pretreated: • i. 50 μl/well of 0.5% (v/v) PEI was added to UniFilter-96 GF/B plates. The plates were sealed and incubated at 4° C. for 3 hrs. • ii. After incubation, the plates were washed 3 times with ice-cold wash buffer (50 mM Tris, pH7.4).
• i. Cell membrane was diluted with assay buffer and 100 μl/well was added to 96 round well plates to reach a concentration of 20 μg/well. • ii. 8 concentrations of reference or test compounds were prepared and 50 μl/well was added to 96 round deep well plates. • iii. [3H]-8-Hydroxy-DPAT was diluted with assay buffer to 2 nM (4× final concentration) and 50 μl/well was added to 96 round well plates. • 4. The plate was centrifuged at 1000 rpm for 30 secs and then agitated at 600 rpm, R.T. for 5 min. • 5. The plates were sealed and the plate was incubated at 27° C. for 90 min. • 6. The incubation was stopped by vacuum filtration onto GF/B filter plates followed by 4 times washing with ice-cold wash buffer (50 mM Tris, pH7.4). • 7. The plates were dried at 37° C. for 45 min. • 8. The filter plates were sealed and 40 μl/well of scintillation cocktail was added. • 9. The plate was read by using a Microbeta^2 microplate counter.
• 1. For reference and test compounds, the results were expressed as % Inhibition, using the normalization equation: N=100-100×(U−C2)/(C1−C2), where U is the unknown value, C1 is the average of high controls, and C2 is the average of low controls. • 2. The IC50 was determined by fitting percentage of inhibition as a […] of compound concentrations with Hill equation using XLfit. Results and Discussion

[2] = target: human 5-HT2A receptor (Homo sapiens, UniProt P28223); experiment: Human 5-HT2A radioligand binding assay ([3H]-ketanserin)
human 5-HT2A receptor, sequence (P28223 whole entry): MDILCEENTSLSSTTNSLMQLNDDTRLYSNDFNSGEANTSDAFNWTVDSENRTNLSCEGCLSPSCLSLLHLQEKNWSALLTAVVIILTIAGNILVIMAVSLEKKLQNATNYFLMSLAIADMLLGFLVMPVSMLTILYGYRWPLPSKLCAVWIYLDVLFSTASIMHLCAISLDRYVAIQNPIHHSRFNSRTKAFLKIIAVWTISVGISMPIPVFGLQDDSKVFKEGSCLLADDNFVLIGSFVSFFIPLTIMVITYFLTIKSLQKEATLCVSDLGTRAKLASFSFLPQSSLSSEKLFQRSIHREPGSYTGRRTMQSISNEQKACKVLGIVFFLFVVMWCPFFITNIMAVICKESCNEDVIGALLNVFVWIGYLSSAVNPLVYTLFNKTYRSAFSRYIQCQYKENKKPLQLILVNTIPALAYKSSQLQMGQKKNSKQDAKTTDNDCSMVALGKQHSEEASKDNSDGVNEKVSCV
Method: The objective of this study was to evaluate the binding properties of exemplary compounds of Formula I on 5-hydroxytryptamine receptor 2A (5-HT2A).
as §1
UniFilter-96 GF/B plate was pretreated: • i. 50 μl/well of 0.5% (v/v) PEI was added to UniFilter-96 GF/C plates. The plates were sealed and incubated at 4° C. for 3 hrs. • ii. After incubation, the plates were washed 3 times with ice-cold wash buffer (50 mM Tris, pH7.4). • 4. […] Cell membrane was diluted with assay buffer and 330 μl/well was added to 96 round deep well plates to reach a concentration of 20 μg/well. • ii. 8 concentrations of reference or test compounds were prepared and 110 μl/well was added to 96 round deep well plates. • iii. […] The plate was centrifuged at 1000 rpm for 30 secs and then agitated at 600 rpm, R.T. for 5 min. • 6. […] The filter plates were sealed and 40 μl/well of scintillation cocktail was added. • 10. The plate was read by using a Microbeta^2 microplate counter.
• 1. […] The IC50 was determined by fitting percentage of inhibition as a function of compound concentrations with Hill equation using XLfit.

[3] = in vitro; conditions: human, microsomes
Method: The concentrations of parent compounds in reaction systems were evaluated by LC-MS/MS for estimating the stability in pooled human, male rat and male mouse liver microsomes. The in vitro intrinsic clearances of test compounds were determined as well. Protocol
A master solution in the “Incubation Plate” containing phosphate buffer, ultra-pure H2O, MgCl2 solution and liver microsomes was made according to Table 6. The mixture was pre-warmed at 37° C. water bath for 5 minutes.
The reaction was started with the addition of 4 μL of 200 μM exemplary test compounds of the application or control compounds to each master solution to get the final concentration of 2 μM. This study was performed in duplicate.
Aliquots of 50 μL were taken from the reaction solution at 0, 15, 30, 45 and 60 minutes. The reaction solutions were stopped by the addition of 4 volumes of cold methanol with IS (100 nM alprazolam, 200 nM imipramine, 200 nM labetalol and 2 μM ketoprofen). Samples were centrifuged at 3,220 g for 40 minutes. Aliquot of 90 μL of the supernatant was mixed with 90 μL of ultra-pure H2O and then was used for LC-MS/MS analysis.
All calculations were carried out using Microsoft Excel. Peak area ratios of test compound to internal standard (listed in the below table) were determined from extracted ion chromatograms.
All calculations were carried out using Microsoft Excel. Peak areas were determined from extracted ion chromatograms. The slope value, k, was determined by linear regression of the natural logarithm of the remaining percentage of the parent drug vs. incubation time curve.
The in vitro half-life (in vitro t½) was determined from the slope value:
Conversion of the in vitro t½ (min) into the in vitro intrinsic clearance (in vitro CLint, in μL/min/mg proteins) was done using the following equation (mean of duplicate determinations):

[4] = [3H]-8-Hydroxy-DPAT, 27° C., 90 min, read-out: h5-HT1A, IC50
[5] = [3H]-ketanserin, 27° C., 90 min, read-out: h5-HT2A, IC50
[6] = Remaining Percentage after 60 min, human liver microsomes, with cofactors

SMILES | IC50 [1, 4] [µM] | IC50 [2, 5] [µM] | half-life at 2 µM [3] [min] | microsomal CLint at 2 µM [3] [µL/min/mg] | remaining at 1 h, 2 µM [3, 6] [%] | further results
CC(C)N(CCc1c[nH]c2cccc(O)c12)C(C)C [Compound 7] | 4.69 | 6.41 | – | – | – | –
CN(C)CCc1c[nH]c2cccc(OC(=O)CCCC(=O)Oc3cccc4[nH]cc(CCN(C)C)c34)c12 [Compound I-24, Bis(3-(2-(dimethylamino)ethyl)-1H-indol-4-yl) glutarate] | 0.336 | 0.127 | 4.94 | 281 | 0 | remaining at 1 h, 2 µM ([3]; Remaining Percentage after 60 min, human liver microsomes, without cofactors): 1.08%
CC(C)N(CCc1c[nH]c2cccc(OC(=O)CCCC(=O)Oc3cccc4[nH]cc(CCN(C(C)C)C(C)C)c34)c12)C(C)C [Compound I-37, Bis(3-(2-(diisopropylamino)ethyl)-1H-indol-4-yl) glutarate dihydrochloride] | – | – | < 4.51 | > 307 | – | remaining at 1 h, 2 µM [3]: 0%; IC50 [1]: 3.96 µM; IC50 [2]: 0.547 µM
CN(C)CCc1c[nH]c2cccc(O)c12 [Psilocin, 4-hydroxy-N,N-dimethyltryptamine, reference compound] | – | – | – | – | 70.2 | –
CN(C)CCc1c[nH]c2cccc(OP(=O)(O)O)c12 [Psilocybin] | 4.79 | – | – | – | – | –
